{"source": "patent US5441941A", "about": "“1,2-dihydroellipticines with activity against CNS specific cancer” (The United States of America as represented by the …, priority 1993, dated 1995)", "key": {"[1]": {"tested_on": "UACC-62", "assay": "NCI in vitro screen, SRB percent growth, Melanoma"}, "[2]": {"tested_on": "EKVX", "assay": "cells", "details": "Homo sapiens"}, "[3]": {"tested_on": "KM12", "assay": "NCI in vitro screen, SRB percent growth, Colon Cancer"}, "[4]": {"tested_on": "SW-620", "assay": "cells", "details": "Homo sapiens"}, "[5]": {"tested_on": "NCI-H23", "assay": "NCI in vitro screen, SRB percent growth, Non-Small Cell Lung Cancer"}, "[6]": {"tested_on": "LOX IMVI", "assay": "NCI in vitro screen, SRB percent growth, Melanoma"}, "[7]": {"tested_on": "K-562", "assay": "NCI in vitro screen, SRB percent growth, Leukemia"}, "[8]": {"tested_on": "SF-539", "assay": "NCI in vitro screen, SRB percent growth, CNS Cancer"}, "[9]": {"details": "Log10 Concentration -4.0, 100 µM"}, "[10]": {"details": "Log10 Concentration -7.0, 0.1 µM"}, "[11]": {"details": "SW-620, read-out: Percent Growth"}}}
{"smiles": "Cc1ccc2[nH]c3c(C)c4c(c(C)c3c2c1)CN(C)C=C4", "note": "[Formula XI]", "values": [{"measurement": "Percent Growth", "setting": "[1]; [9]", "value": -84, "unit": "%"}, {"measurement": "Percent Growth", "setting": "[1]; Log10 Concentration -5.0", "value": -91, "unit": "%"}, {"measurement": "Percent Growth", "setting": "[1]; Log10 Concentration -6.0, 1 µM", "value": 92, "unit": "%"}, {"measurement": "Percent Growth", "setting": "[1]; [10]", "value": 100, "unit": "%"}, {"measurement": "Percent Growth", "setting": "[1]; Log10 Concentration -8.0", "value": 106, "unit": "%"}, {"measurement": "TGI", "setting": "[1]; PG=0", "value": 3.18, "unit": "µM"}, {"measurement": "GI50", "setting": "[1]; PG=+50", "value": 1.69, "unit": "µM"}, {"measurement": "CC50", "setting": "[1]; read-out: LC-50, PG=-50", "value": 5.99, "unit": "µM"}, {"measurement": "GI50", "setting": "[2]", "value": 3.6, "unit": "µM"}, {"measurement": "activity at 0.01 µM", "setting": "[2]; read-out: Percent Growth", "value": 109, "unit": "%"}, {"measurement": "activity at 0.1 µM", "setting": "[2]; read-out: Percent Growth", "value": 114, "unit": "%"}, {"measurement": "activity at 1 µM", "setting": "[2]; read-out: Percent Growth", "value": 86, "unit": "%"}, {"measurement": "activity at 10 µM", "setting": "[2]; read-out: Percent Growth", "value": 22, "unit": "%"}, {"measurement": "activity at 100 µM", "setting": "[2]; read-out: Percent Growth", "value": -22, "unit": "%"}, {"measurement": "IC (TGI)", "setting": "[2]; read-out: TGI", "value": 31.2, "unit": "µM"}, {"measurement": "Percent Growth", "setting": "[3]; [9]", "value": -93, "unit": "%"}, {"measurement": "Percent Growth", "setting": "[3]; Log10 Concentration -5.0", "value": -48, "unit": "%"}, {"measurement": "Percent Growth", "setting": "[3]; Log10 Concentration -6.0, 1 µM", "value": 38, "unit": "%"}, {"measurement": "Percent Growth", "setting": "[3]; [10]", "value": 95, "unit": "%"}, {"measurement": "Percent Growth", "setting": "[3]; Log10 Concentration -8.0", "value": 97, "unit": "%"}, {"measurement": "TGI", "setting": "[3]; PG=0", "value": 2.78, "unit": "µM"}, {"measurement": "GI50", "setting": "[3]; PG=+50", "value": 0.622, "unit": "µM"}, {"measurement": "CC50", "setting": "[3]; read-out: LC-50, PG=-50", "value": 11, "unit": "µM"}, {"measurement": "GI50", "setting": "[4]; SW-620", "value": 0.279, "unit": "µM"}, {"measurement": "CC50", "setting": "[4]; SW-620, read-out: LC-50", "value": 28.6, "unit": "µM"}, {"measurement": "activity at 0.01 µM", "setting": "[4]; [11]", "value": 89, "unit": "%"}, {"measurement": "activity at 0.1 µM", "setting": "[4]; [11]", "value": 76, "unit": "%"}, {"measurement": "activity at 1 µM", "setting": "[4]; [11]", "value": 18, "unit": "%"}, {"measurement": "activity at 10 µM", "setting": "[4]; [11]", "value": -21, "unit": "%"}, {"measurement": "activity at 100 µM", "setting": "[4]; [11]", "value": -85, "unit": "%"}, {"measurement": "IC (TGI)", "setting": "[4]; SW-620, read-out: TGI", "value": 2.87, "unit": "µM"}, {"measurement": "Percent Growth", "setting": "[5]; [9]", "value": -85, "unit": "%"}, {"measurement": "Percent Growth", "setting": "[5]; Log10 Concentration -5.0", "value": -75, "unit": "%"}, {"measurement": "Percent Growth", "setting": "[5]; Log10 Concentration -6.0, 1 µM", "value": 42, "unit": "%"}, {"measurement": "Percent Growth", "setting": "[5]; [10]", "value": 97, "unit": "%"}, {"measurement": "Percent Growth", "setting": "[5]; Log10 Concentration -8.0", "value": 95, "unit": "%"}, {"measurement": "TGI", "setting": "[5]; PG=0", "value": 2.29, "unit": "µM"}, {"measurement": "GI50", "setting": "[5]; PG=+50", "value": 0.668, "unit": "µM"}, {"measurement": "CC50", "setting": "[5]; read-out: LC-50, PG=-50", "value": 6.15, "unit": "µM"}, {"measurement": "Percent Growth", "setting": "[6]; [9]", "value": -81, "unit": "%"}, {"measurement": "Percent Growth", "setting": "[6]; Log10 Concentration -5.0", "value": 26, "unit": "%"}, {"measurement": "Percent Growth", "setting": "[6]; Log10 Concentration -6.0, 1 µM", "value": 82, "unit": "%"}, {"measurement": "Percent Growth", "setting": "[6]; [10]", "value": 94, "unit": "%"}, {"measurement": "Percent Growth", "setting": "[6]; Log10 Concentration -8.0", "value": 98, "unit": "%"}, {"measurement": "TGI", "setting": "[6]; PG=0", "value": 17.4, "unit": "µM"}, {"measurement": "GI50", "setting": "[6]; PG=+50", "value": 3.67, "unit": "µM"}, {"measurement": "CC50", "setting": "[6]; read-out: LC-50, PG=-50", "value": 51.4, "unit": "µM"}, {"measurement": "Percent Growth", "setting": "[7]; [9]", "value": 2, "unit": "%"}, {"measurement": "Percent Growth", "setting": "[7]; Log10 Concentration -5.0", "value": 6, "unit": "%"}, {"measurement": "Percent Growth", "setting": "[7]; Log10 Concentration -6.0, 1 µM", "value": 53, "unit": "%"}, {"measurement": "Percent Growth", "setting": "[7]; [10]", "value": 83, "unit": "%"}, {"measurement": "Percent Growth", "setting": "[7]; Log10 Concentration -8.0", "value": 95, "unit": "%"}, {"measurement": "TGI", "setting": "[7]; PG=0", "value": "> 100", "unit": "µM"}, {"measurement": "GI50", "setting": "[7]; PG=+50", "value": 1.17, "unit": "µM"}, {"measurement": "CC50", "setting": "[7]; read-out: LC-50, PG=-50", "value": "> 100", "unit": "µM"}, {"measurement": "Percent Growth", "setting": "[8]; [9]", "value": -90, "unit": "%"}, {"measurement": "Percent Growth", "setting": "[8]; Log10 Concentration -5.0", "value": -58, "unit": "%"}, {"measurement": "Percent Growth", "setting": "[8]; Log10 Concentration -6.0, 1 µM", "value": 6, "unit": "%"}, {"measurement": "Percent Growth", "setting": "[8]; [10]", "value": 92, "unit": "%"}, {"measurement": "Percent Growth", "setting": "[8]; Log10 Concentration -8.0", "value": 99, "unit": "%"}, {"measurement": "TGI", "setting": "[8]; PG=0", "value": 1.23, "unit": "µM"}, {"measurement": "GI50", "setting": "[8]; PG=+50", "value": 0.305, "unit": "µM"}, {"measurement": "CC50", "setting": "[8]; read-out: LC-50, PG=-50", "value": 7.56, "unit": "µM"}]}
